Results reported in ChEMBL document CHEMBL2074441, “Identification of breast cancer resistant protein/mitoxantrone resistance/placenta-specific, ATP-binding cassette transporter as a transporter of NB-506 and J-107088, topoisomerase I inhibitors with an indolocarbazole structure” (Cancer Res, 2001).

Assays:
[1] = molecular target: T1, Broad substrate specificity ATP-binding cassette transporter ABCG2 (Mus musculus, UniProt Q7TMS5); assay: TP_TRANSPORTER: intracellular accumulation in LY and LY/NR2 cells; format: functional, cell-based
T1 sequence (Q7TMS5 whole entry): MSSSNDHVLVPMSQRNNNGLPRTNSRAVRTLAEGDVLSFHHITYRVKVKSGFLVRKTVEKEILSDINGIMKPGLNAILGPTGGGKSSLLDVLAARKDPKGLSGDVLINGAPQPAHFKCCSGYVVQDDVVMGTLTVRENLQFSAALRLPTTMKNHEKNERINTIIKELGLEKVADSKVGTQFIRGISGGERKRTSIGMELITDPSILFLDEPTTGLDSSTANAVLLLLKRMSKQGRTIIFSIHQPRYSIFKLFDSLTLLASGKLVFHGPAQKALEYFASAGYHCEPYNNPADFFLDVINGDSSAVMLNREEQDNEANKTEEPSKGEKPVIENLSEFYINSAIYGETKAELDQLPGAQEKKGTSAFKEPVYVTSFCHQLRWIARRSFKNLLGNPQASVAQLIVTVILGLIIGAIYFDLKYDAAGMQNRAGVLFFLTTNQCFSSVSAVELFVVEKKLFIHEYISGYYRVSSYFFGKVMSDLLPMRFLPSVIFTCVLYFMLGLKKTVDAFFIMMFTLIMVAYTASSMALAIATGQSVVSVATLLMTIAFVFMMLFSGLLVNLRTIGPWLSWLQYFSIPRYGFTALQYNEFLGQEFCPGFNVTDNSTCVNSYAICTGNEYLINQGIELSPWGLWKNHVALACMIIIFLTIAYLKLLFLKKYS

[2] = molecular target: T2, Broad substrate specificity ATP-binding cassette transporter ABCG2 (Homo sapiens, UniProt Q9UNQ0); assay: TP_TRANSPORTER: intracellular accumulation in BCRP-transfected PC-13 cells; format: functional, cell-based
T2 sequence (Q9UNQ0 whole entry): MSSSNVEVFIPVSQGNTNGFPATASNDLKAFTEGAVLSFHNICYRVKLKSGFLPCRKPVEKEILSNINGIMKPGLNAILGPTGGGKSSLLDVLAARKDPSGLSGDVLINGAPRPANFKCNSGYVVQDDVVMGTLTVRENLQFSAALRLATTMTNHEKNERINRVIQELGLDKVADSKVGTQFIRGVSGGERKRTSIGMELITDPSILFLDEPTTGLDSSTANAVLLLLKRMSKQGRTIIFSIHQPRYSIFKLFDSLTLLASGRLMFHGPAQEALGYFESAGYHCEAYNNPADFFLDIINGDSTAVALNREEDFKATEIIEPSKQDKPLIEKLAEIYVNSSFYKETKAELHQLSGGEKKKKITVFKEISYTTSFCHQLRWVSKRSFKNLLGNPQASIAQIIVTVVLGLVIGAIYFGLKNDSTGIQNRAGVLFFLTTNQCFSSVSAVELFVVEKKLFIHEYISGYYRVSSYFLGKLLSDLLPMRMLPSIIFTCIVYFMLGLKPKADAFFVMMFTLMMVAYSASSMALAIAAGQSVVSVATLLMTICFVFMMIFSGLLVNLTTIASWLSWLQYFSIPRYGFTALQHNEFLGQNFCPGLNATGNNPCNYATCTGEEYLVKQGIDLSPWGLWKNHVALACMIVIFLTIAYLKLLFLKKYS

Compound | Activity [1] | Activity [2]
O=CNN1C(=O)c2c(c3c4cccc(O)c4n([C@@H]4O[C@H](CO)[C@@H](O)[C@H](O)[C@H]4O)c3c3[nH]c4c(O)cccc4c23)C1=O | substrate [+] | –
O=C1c2c(c3c4ccc(O)cc4n([C@@H]4O[C@H](CO)[C@@H](O)[C@H](O)[C@H]4O)c3c3[nH]c4cc(O)ccc4c23)C(=O)N1NC(CO)CO [EDOTECARIN] | – | substrate [+]
